Assay results published in patent US20160000796A1, “PHARMACEUTICAL COMPOSITION FOR USE IN PREVENTION OR TREATMENT OF CANCER” (priority 2013, published 2016).

Columns and labels:
[1] = tested on: HTLV-1-producing cell line, HUT102 (derived from ATL); assay: Cellular proliferation test (MTS assay), HUT102; type: cell-based
Method: HTLV-1-producing cell lines, MT2 (transformant with HTLV-1, JCRB cell No: JCRB1210) and HUT102 (ATL-derived cell line, ATCC No: TIB-162), were used.
(§1) Each nucleoside analogue reverse transcriptase inhibitor was added to the medium for cells at a final concentration of 100 μM. Cells were seeded on a 96-well plate at a concentration of 1×10^4 cells/100 μL/well and cultured for 4 hours (Day 0), 48 hours (Day 2) or 96 hours (Day 4). A medium added DMSO (solvent control) alone was used as a control. Cellular proliferation was examined by MTS assay. Specifically, after the cells were cultured for a predetermined time, a reagent for cellular proliferation test, Aqueous One Solution Cell Proliferation (trade name, manufactured by Promega), was added to the cells. Four hours later, absorbance at 490 nm was measured. The cellular proliferation was represented by a ratio relative to that of the control (solvent control) on Day 0 that was regarded as 1.
Abacavir was added to MT2 and HUT102 used in Example 1 at a concentration of 0 μM (DMSO was added instead of abacavir), 10 μM, 25 μM, 50 μM, 75 μM or 100 μM. The cells were seeded on a 96-well plate at a concentration of 1×10^4 cells/100 μL/well and cultured for 4 hours or 48 hours. […]

[2] = tested on: ED40515 (−) (non-virus-producing ATL cell line); assay: Cellular proliferation (MTS assay), ED40515 (−); type: cell-based
Method: as §1
(§2) This example used HTLV-1-infected cell lines (non-virus-producing ATL cell lines): ED40515 (−), ED40515 (+), and ATL43T (all were provided by Prof. Michiyuki Maeda who produced the cells); and SYK-11L (+) (prepared in the laboratory of the inventors).
(§3) The six types of nucleoside analogue reverse transcriptase inhibitors as used in Example 1 were used and cellular proliferation was examined in the same manner as in Example 1. […]

[3] = tested on: ED40515 (+) (non-virus-producing ATL cell line); assay: Cellular proliferation (MTS assay), ED40515 (+); type: cell-based
Method: as §1, §2, §3

[4] = tested on: ATL cell line, ED40515 (−); assay: Chromosome double-strand break (Giemsa chromosome specimens), ED40515 (−); type: cell-based; details: 48 hours, abacavir 10-100 μM, zidovudine 10 or 100 μM
Method: (§4) Abacavir was added to an ATL cell line, ED40515 (−), at a concentration of 0 μM (DMSO was added instead of abacavir), 10 μM, 25 μM, 50 μM, 75 μM or 100 μM. After the 48 hours culture, the cells were fixed by Carnoy and stained with Giemsa to prepare chromosome specimens in accordance with conventional methods. Similarly, zidovudine was added to ED40515 (−) at a concentration of 10 μM or 100 μM, and abacavir was added to a non-ATL cell line, Jurkat, at a concentration of 100 μM, and chromosome specimens were prepared. Chromosome images (100 or more images per group) were observed by an optical microscope. The cells were determined as being positive for double-strand break (DSB) when at least one chromosome break was found.

[5] = tested on: non-ATL cell line, Jurkat; assay: Chromosome double-strand break (Giemsa chromosome specimens), Jurkat; type: cell-based, human; details: 100 μM, 48 hours
Method: as §4

Rad51, γH2AX and PARP = assay: Induction of DNA repair proteins (immunostaining); type: cell-based; details: ED40515 (−) versus Jurkat; 100 μM; 48 hours
Method: To an ATL cell line, ED40515 (−), or a non-ATL cell line, Jurkat, DMSO (solvent control) or abacavir was added at a concentration of 100 μM. The cells were cultured for 48 hours. The cells were fixed on slides, immuno-stained for Rad51, γH2AX and PARP, and observed by a fluorescent microscope. At least 70 cells per group were observed and the ratio of cells positive for each protein was calculated. Rad51, which is a homologue of a RecA protein of Escherichia coli, is involved in repair of double-strand DNA break. γH2AX, which is a phosphorylated histone protein, is involved in repair of double-strand DNA break. PARP, which is a poly(ADP-ribose) synthetase, is involved in repair of single-strand DNA break.

[6] = tested on: NCI_H522 (lung cancer cell line lacking TDP1 expression); assay: Cellular proliferation (MTS) of lung cancer cell line NCI_H522; type: cell-based; details: 100, 200 or 300 μM, 72 hours
Method: Lung cancer cell lines lacking TDP1 expression, HOP—62 and NCI_H522, were used. NCI_H1299, a lung cancer cell line expressing TDP1, was used as a control. HOP—62 and NCI_H522 were provided by Dr. Pommier (DNA Repair. 2014 January; 13: 1-9).
Abacavir was added to each of the cell lines at a concentration of 0 μM (DMSO was added instead of abacavir), 100 μM, 200 μM or 300 μM. The cells were seeded on a 96-well plate at a concentration of 3×10^3 cells/100 μL/well and cultured for 4 hours or 72 hours. After the culture of a predetermined time, MTS assay was performed using a reagent for cellular proliferation, test, Aqueous One Solution Cell Proliferation (trade name, manufactured by Promega), in the same manner as in Example 1. The cellular proliferation was represented by a ratio relative to that of the control (solvent control) on Day 0 that was regarded as 100%.

For `Nc1nc(NC2CC2)c2ncn([C@H]3C=C[C@@H](CO)C3)c2n1` [abacavir, (−)-(1S,4R)-4-[2-amino-6-(cyclopropylamino)-9H-purin-9-yl]-2-cyclopentene-1-methanol], the “cellular proliferation (ratio relative to solvent control on Day 0)” value ([1]; 100 μM, Day 0, 2, 4, compared among six NRTIs) was “most strongly suppressed”, the “cellular proliferation, dose dependence” value ([1]; 10, 25, 50, 75, 100 μM, 48 hours) was “suppressed cellular proliferation of both cell lines in a dose-dependent manner” and the cellular proliferation ([2]; 100 μM) was “strong suppressive effect”. For the same compound, the “cellular proliferation, dose dependence” value ([2]; 10-100 μM, Day 0, 2, 4) was “suppressed cellular proliferation of all the cell lines in a dose-dependent manner”, the cellular proliferation ([3]; 100 μM) was “strong suppressive effect” and the “cellular proliferation, dose dependence” value ([3]; 10-100 μM, Day 0, 2, 4) was “suppressed cellular proliferation of all the cell lines in a dose-dependent manner”. For the same compound, the “ratio of double-strand break-positive cells” value [4] was “increased the ratio of double-strand break-positive cells in a dose-dependent manner”, the “ratio of double-strand break-positive cells” value [5] was “did not induce double-strand break” and the “ratio of PARP positive cells” value (Rad51, γH2AX and PARP) was “induces Rad51, γH2AX, and PARP specifically in an ATL cell line”. The “ratio of Rad51 positive cells” value (Rad51, γH2AX and PARP) was “induces Rad51, γH2AX, and PARP specifically in an ATL cell line”, the “ratio of γH2AX positive cells” value (Rad51, γH2AX and PARP) was “induces Rad51, γH2AX, and PARP specifically in an ATL cell line” and the cellular proliferation [6] was “suppressed cellular proliferation of HOP—62 and NCI_H522 lacking TDP1 expression in a concentration dependent manner”.
